From ChEMBL document CHEMBL3885881, “DrugMatrix”

Organism: Rattus norvegicus
Experiment: DrugMatrix - Regimen: Daily Repeat
Assay type: toxicity, organism-based, Sprague-Dawley
Parameters: regimen Daily Repeat, gender Male, age 6-8 weeks
Conditions: in vivo, po, route oral GAVAGE, vehicle .5 % CMC; for ABSOLUTE BASOPHIL / ABSOLUTE EOSINOPHIL / ABSOLUTE LYMPHOCYTE / ABSOLUTE MONOCYTE / ABSOLUTE SEGMENTED NEUTROPHIL / BASOPHIL / EOSINOPHIL / ERYTHROCYTE COUNT / HEMATOCRIT / HEMOGLOBIN / LEUKOCYTE COUNT / LYMPHOCYTE / MEAN CORPUSCULAR HEMOGLOBIN / MEAN CORPUSCULAR HEMOGLOBIN CONCENTRATION / MEAN CORPUSCULAR VOLUME / MONOCYTE / NEUTROPHIL / NUCLEATED RED BLOOD CELLS / PLATELET COUNT: tissue Blood; for ALANINE AMINOTRANSFERASE / ALBUMIN / ALKALINE PHOSPHATASE / ASPARTATE AMINOTRANSFERASE / BLOOD UREA NITROGEN / CARBON DIOXIDE / CHLORIDE / CHOLESTEROL / CREATINE PHOSPHOKINASE / CREATININE / GLUCOSE / LACTATE DEHYDROGENASE / LIPASE / POTASSIUM / SODIUM / TOTAL BILIRUBIN / TOTAL PROTEIN: tissue Plasma
[1] = 0 mg/kg, 72 h, dose level Control, time 3 day
[2] = 0 mg/kg, 120 h, dose level Control, time 5 day
[3] = 150 mg/kg, 72 h, dose level Low, time 3 day

C[C@@H]1CC[C@H]2[C@@H](C)C(=O)O[C@@H]3O[C@@]4(C)CC[C@@H]1[C@]32OO4 [ARTEMISININ]
ABSOLUTE BASOPHIL [1]: 0 CELLS/uL
ABSOLUTE EOSINOPHIL [1]: 171.33 CELLS/uL
ABSOLUTE LYMPHOCYTE [1]: 13776.5 CELLS/uL
ABSOLUTE MONOCYTE [1]: 180.83 CELLS/uL
ABSOLUTE SEGMENTED NEUTROPHIL [1]: 1121.33 CELLS/uL
BASOPHIL [1]: 0%
EOSINOPHIL [1]: 1%
ERYTHROCYTE COUNT [1]: 5.56 x10E6/uL
HEMATOCRIT [1]: 34.75%
HEMOGLOBIN [1]: 13.68 G/DL
LEUKOCYTE COUNT [1]: 15.25 x10E3/uL
LYMPHOCYTE [1]: 90.17%
MEAN CORPUSCULAR HEMOGLOBIN [1]: 24.6 pg
MEAN CORPUSCULAR HEMOGLOBIN CONCENTRATION [1]: 39.4 G/DL
MEAN CORPUSCULAR VOLUME [1]: 62.48 fL
MONOCYTE [1]: 1.17%
NEUTROPHIL [1]: 7.67%
NUCLEATED RED BLOOD CELLS [1]: 0 /100WBC
PLATELET COUNT [1]: 1342 x10E3/uL
ALANINE AMINOTRANSFERASE [1]: 49.67 u/L
ALBUMIN [1]: 4.15 G/DL
ALKALINE PHOSPHATASE [1]: 346.83 u/L
ASPARTATE AMINOTRANSFERASE [1]: 108.17 u/L
BLOOD UREA NITROGEN [1]: 17.33 mg/dL
CARBON DIOXIDE [1]: 25 mmol/L
CHLORIDE [1]: 100.83 MEQ/L
CHOLESTEROL [1]: 66.83 mg/dL
CREATINE PHOSPHOKINASE [1]: 788 u/L
CREATININE [1]: 0.18 mg/dL
GLUCOSE [1]: 151.67 mg/dL
LACTATE DEHYDROGENASE [1]: 982.5 u/L
LIPASE [1]: 10.33 u/L
POTASSIUM [1]: 6.37 MEQ/L
SODIUM [1]: 141.02 MEQ/L
TOTAL BILIRUBIN [1]: 0.18 mg/dL
TOTAL PROTEIN [1]: 5.9 G/DL
ABSOLUTE BASOPHIL [2]: 0 CELLS/uL
ABSOLUTE EOSINOPHIL [2]: 69 CELLS/uL
ABSOLUTE LYMPHOCYTE [2]: 13632.83 CELLS/uL
ABSOLUTE MONOCYTE [2]: 139.83 CELLS/uL
ABSOLUTE SEGMENTED NEUTROPHIL [2]: 1225 CELLS/uL
BASOPHIL [2]: 0%
EOSINOPHIL [2]: 0.33%
ERYTHROCYTE COUNT [2]: 5.52 x10E6/uL
HEMATOCRIT [2]: 33.98%
HEMOGLOBIN [2]: 13.22 G/DL
LEUKOCYTE COUNT [2]: 15.07 x10E3/uL
LYMPHOCYTE [2]: 90.83%
MEAN CORPUSCULAR HEMOGLOBIN [2]: 23.95 pg
MEAN CORPUSCULAR HEMOGLOBIN CONCENTRATION [2]: 38.9 G/DL
MEAN CORPUSCULAR VOLUME [2]: 61.53 fL
MONOCYTE [2]: 0.83%
NEUTROPHIL [2]: 8%
NUCLEATED RED BLOOD CELLS [2]: 0 /100WBC
PLATELET COUNT [2]: 1196 x10E3/uL
ALANINE AMINOTRANSFERASE [2]: 49.17 u/L
ALBUMIN [2]: 4.2 G/DL
ALKALINE PHOSPHATASE [2]: 352.33 u/L
ASPARTATE AMINOTRANSFERASE [2]: 89.67 u/L
BLOOD UREA NITROGEN [2]: 18 mg/dL
CARBON DIOXIDE [2]: 27.67 mmol/L
CHLORIDE [2]: 101 MEQ/L
CHOLESTEROL [2]: 72.83 mg/dL
CREATINE PHOSPHOKINASE [2]: 417.5 u/L
CREATININE [2]: 0.18 mg/dL
GLUCOSE [2]: 150.5 mg/dL
LACTATE DEHYDROGENASE [2]: 517.33 u/L
LIPASE [2]: 9 u/L
POTASSIUM [2]: 6.57 MEQ/L
SODIUM [2]: 143.62 MEQ/L
TOTAL BILIRUBIN [2]: 0.2 mg/dL
TOTAL PROTEIN [2]: 6.08 G/DL
ABSOLUTE BASOPHIL [3]: 0 CELLS/uL
ABSOLUTE EOSINOPHIL [3]: 206 CELLS/uL
ABSOLUTE LYMPHOCYTE [3]: 10521.33 CELLS/uL
ABSOLUTE MONOCYTE [3]: 315 CELLS/uL
ABSOLUTE SEGMENTED NEUTROPHIL [3]: 957.67 CELLS/uL
BASOPHIL [3]: 0%
EOSINOPHIL [3]: 1.67%
ERYTHROCYTE COUNT [3]: 6.1 x10E6/uL
HEMATOCRIT [3]: 36.63%
HEMOGLOBIN [3]: 13.77 G/DL
LEUKOCYTE COUNT [3]: 12 x10E3/uL
LYMPHOCYTE [3]: 87.67%
MEAN CORPUSCULAR HEMOGLOBIN [3]: 22.63 pg
MEAN CORPUSCULAR HEMOGLOBIN CONCENTRATION [3]: 37.6 G/DL
MEAN CORPUSCULAR VOLUME [3]: 60.1 fL
MONOCYTE [3]: 2.67%
NEUTROPHIL [3]: 8%
NUCLEATED RED BLOOD CELLS [3]: 0 /100WBC
PLATELET COUNT [3]: 1362.67 x10E3/uL
ALANINE AMINOTRANSFERASE [3]: 38 u/L
ALBUMIN [3]: 4.53 G/DL
ALKALINE PHOSPHATASE [3]: 347.67 u/L
ASPARTATE AMINOTRANSFERASE [3]: 86.67 u/L
BLOOD UREA NITROGEN [3]: 22 mg/dL
CARBON DIOXIDE [3]: 25.33 mmol/L
CHLORIDE [3]: 104.33 MEQ/L
CHOLESTEROL [3]: 87.67 mg/dL
CREATINE PHOSPHOKINASE [3]: 336.33 u/L
CREATININE [3]: 0.24 mg/dL
GLUCOSE [3]: 145.67 mg/dL
LACTATE DEHYDROGENASE [3]: 459.33 u/L
LIPASE [3]: 11 u/L
POTASSIUM [3]: 6.03 MEQ/L
SODIUM [3]: 146.83 MEQ/L
TOTAL BILIRUBIN [3]: 0.13 mg/dL
